Assay results as given in PubChem BioAssay (NCI).
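Five concentrations, 48 hours, 96-well plates. At the TGI there is no net growth.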

Key:
Assay in all cases: DTP human tumour cell line panel, 48 h
SF-268 CNS = test system: SF-268 CNS
HT29 colon = test system: HT29 colon
CAKI-1 renal = test system: CAKI-1 renal
EKVX NSCLC = test system: EKVX NSCLC
M14 melanoma = test system: M14 melanoma
MALME-3M melanoma = test system: MALME-3M melanoma
UACC-62 melanoma = test system: UACC-62 melanoma
UO-31 renal = test system: UO-31 renal
A549 NSCLC = test system: A549 NSCLC
OVCAR-5 ovarian = test system: OVCAR-5 ovarian
UACC-257 melanoma = test system: UACC-257 melanoma
SK-OV-3 ovarian = test system: SK-OV-3 ovarian
HOP-62 NSCLC = test system: HOP-62 NSCLC
SK-MEL-2 melanoma = test system: SK-MEL-2 melanoma
MDA-MB-231 breast = test system: MDA-MB-231 breast
BT-549 breast = test system: BT-549 breast
A498 renal = test system: A498 renal
SF-539 CNS = test system: SF-539 CNS
SR leukemia = test system: SR leukemia
TK-10 renal = test system: TK-10 renal
RXF 393 renal = test system: RXF 393 renal
IGROV1 ovarian = test system: IGROV1 ovarian
LOX IMVI melanoma = test system: LOX IMVI melanoma
K-562 leukemia = test system: K-562 leukemia
SNB-75 CNS = test system: SNB-75 CNS
MDA-MB-435 = test system: MDA-MB-435
SK-MEL-28 melanoma = test system: SK-MEL-28 melanoma
NCI-H23 lung = test system: NCI-H23 lung
SF-295 CNS = test system: SF-295 CNS
MOLT-4 leukemia = test system: MOLT-4 leukemia
NCI-H460 lung = test system: NCI-H460 lung
U251 CNS = test system: U251 CNS
MDA-N = test system: MDA-N
KM12 colon = test system: KM12 colon
NCI-H522 lung = test system: NCI-H522 lung
ACHN renal = test system: ACHN renal
PC-3 prostate = test system: PC-3 prostate
SNB-19 CNS = test system: SNB-19 CNS
HCT-116 colon = test system: HCT-116 colon
HCC-2998 colon = test system: HCC-2998 colon
HS 578T breast = test system: HS 578T breast
HOP-92 NSCLC = test system: HOP-92 NSCLC
DU-145 prostate = test system: DU-145 prostate
CCRF-CEM leukemia = test system: CCRF-CEM leukemia
SW-620 colon = test system: SW-620 colon
SK-MEL-5 melanoma = test system: SK-MEL-5 melanoma
OVCAR-4 ovarian = test system: OVCAR-4 ovarian
NCI-H226 lung = test system: NCI-H226 lung
786-0 renal = test system: 786-0 renal
SN12C renal = test system: SN12C renal
OVCAR-3 ovarian = test system: OVCAR-3 ovarian
COLO 205 colon = test system: COLO 205 colon

`C=C(Cl)C(Br)(CCl)CCC(Cl)C(C)C` (configuration not stated) (tested in a mixture with another compound) showed a TGI (SF-268 CNS) of 3.53 µM, a TGI (HT29 colon) of 2.75 µM and a TGI (CAKI-1 renal) of 7.54 µM. The TGI (EKVX NSCLC) was 29.6 µM, the TGI (M14 melanoma) was 3.87 µM and the TGI (MALME-3M melanoma) was 7.07 µM. The TGI (UACC-62 melanoma) was 2.59 µM, the TGI (UO-31 renal) was 3.01 µM and the TGI (A549 NSCLC) was 31.9 µM. It also gave a TGI (OVCAR-5 ovarian) of 6.69 µM, a TGI (UACC-257 melanoma) of 3.27 µM and a TGI (SK-OV-3 ovarian) of 8.85 µM. It also gave a TGI (HOP-62 NSCLC) of 4.76 µM, a TGI (SK-MEL-2 melanoma) of 2.97 µM and a TGI (MDA-MB-231 breast) of 2.49 µM. The TGI (BT-549 breast) was 3.19 µM, the TGI (A498 renal) was 31.6 µM and the TGI (SF-539 CNS) was 3.72 µM. The TGI (SR leukemia) was over 100 µM, the TGI (TK-10 renal) was 4.05 µM and the TGI (RXF 393 renal) was 3.93 µM. It also gave a TGI (IGROV1 ovarian) of 3.73 µM, a TGI (LOX IMVI melanoma) of 1.23 µM and a TGI (K-562 leukemia) of 24.2 µM. For the same compound, the TGI (SNB-75 CNS) was 2.35 µM, the TGI (MDA-MB-435) was 3.67 µM and the TGI (SK-MEL-28 melanoma) was 3.21 µM. For the same compound, the TGI (NCI-H23 lung) was 3.79 µM, the TGI (SF-295 CNS) was 19.6 µM and the TGI (MOLT-4 leukemia) was 48 µM. It also gave a TGI (NCI-H460 lung) of 3.42 µM, a TGI (U251 CNS) of 3.14 µM and a TGI (MDA-N) of 3.45 µM. It also gave a TGI (KM12 colon) of 3.55 µM, a TGI (NCI-H522 lung) of 2.95 µM and a TGI (ACHN renal) of 3.98 µM. For the same compound, the TGI (PC-3 prostate) was 10.6 µM, the TGI (SNB-19 CNS) was 10.7 µM and the TGI (HCT-116 colon) was 3.92 µM. For the same compound, the TGI (HCC-2998 colon) was 10.7 µM, the TGI (HS 578T breast) was 7.48 µM and the TGI (HOP-92 NSCLC) was 3.46 µM. For the same compound, the TGI (DU-145 prostate) was 3.25 µM, the TGI (CCRF-CEM leukemia) was over 100 µM and the TGI (SW-620 colon) was 2.96 µM. The TGI (SK-MEL-5 melanoma) was 3.9 µM, the TGI (OVCAR-4 ovarian) was 3.82 µM and the TGI (NCI-H226 lung) was 13.6 µM. It also gave a TGI (786-0 renal) of 2.74 µM, a TGI (SN12C renal) of 3.08 µM and a TGI (OVCAR-3 ovarian) of 5.15 µM. The TGI (COLO 205 colon) was 5 µM.
